Data taken from article PMC5458519, “Splicing modulators act at the branch point adenosine binding pocket defined by the PHF5A–SF3b complex” (Nature Communications, 2017).

Assays:
[1] = test system: global splicing (splice junction usage); experiment: RNA-seq differential splicing analysis in PHF5A WT or Y36C overexpressing cells; assay type: cell-based; conditions: 100 nM
Procedure: Either PHF5A WT or Y36C mutant-overexpressing cells were treated with either DMSO or E7107 (100 nM and 10 μM) for 6 h in hexaplicate before lysed in TRIzol reagent (Thermo Fisher). After phase separation, the top aqueous phase was further processed using MagMAX-96 Total RNA Isolation Kit (Thermo Fisher, AM1830) for RNA extraction. RNA quality was assessed using Agilent tapestation with RNA screen tape. RNA-seq libraries were prepared by Beijing Genomic Institute (BGI) and sequenced on Illumina Hiseq 4,000 for 6G clean reads per sample. RNA-seq reads were aligned to hg19 by STAR[50] and raw junction counts generated by STAR were used for calculating PSI to quantify splice junction usage relative to all other splice junctions that share the same splice site as described before. Differential PSI were assessed between a pair of sample groups using moderated t-test defined in limma package[52] in Bioconductor. […]
The number of reads which cover the splice junction which excludes a given cassette exon (ES reads) are compared with both the number of spliced reads which share its 3′ splice site yet have an alternative 5′ splice site bordering the cassette exon (exon inclusion reads) and the number of reads which cross the exon–intron boundary at that same 3′ splice site (IR reads). […]

[2] = test system: splicing of SLC25A19, EIF4A1 and MCL1; experiment: Taqman gene expression assay (SLC25A19 mRNA, EIF4A1 pre-mRNA, MCL1 isoforms) in PHF5A WT or Y36C HCT116 cells; assay type: cell-based; conditions: for induction of MCL1 ES and IR events: PHF5A WT cells, dose response, 4 h
Procedure: Eight thousand cells of indicated genotypes were seeded in each well of 96-well plate and allowed to settle overnight. On the second day, 11 pt serial dilution (1:4 fold dilution across) of indicated compound with a top dosage of 10 μM final was added to the culturing medium. Four hours post compound addition, culturing medium was decanted and washed once with PBS. PBS was then decanted completely from the plate and Lysis buffer (plus DNase I) from TaqMan Gene Expression Cells-to-CT Kit (Thermo Fisher, cat # AM1729) was added according to the manual. After 5 min incubation at RT on the shaker, stop solution was added to each well and incubated for 2 min. Reverse transcription was set up immediately using the Cells-to-CT Kit and cDNAs were used for quantitative real-time PCR analysis using Viia7 (Thermo Fisher). Each reaction is multiplexed with an FAM-labelled probe targeting specific target gene splicing isoforms and a VIC-labelled probe targeted 18S rRNA as loading control. Therefore, the FAM Ct value in each well was first normalized to the VIC Ct value in the same well before further normalization to the FAM/VIC ratio of DMSO-treated control samples to calculate fold change over DMSO. Graphs were generated using Graphpad Prism 6, n=2. Taqman gene expression probes used in these assays are listed in Supplementary Table 1.

HCT116 cells = experiment: 72 h growth inhibition profiling (CellTiter-Glo cellular viability assay), parental HCT116; assay type: cell-based; conditions: in HCT116
Procedure: (§1) For CellTiter-Glo analysis, 500 cells were seeded in each well of a 384-well plate the day before compound addition. An 11 pt serial dilution was used starting with a top final dosage of 10 μM for 10 additional doses. DMSO percentage was maintained throughout and a DMSO-only control was included. Seventy-two hours post compound addition, CellTiter-Glo reagent was added to the medium, incubated and assayed on EnVision Multilabel Reader (PerkinElmer). The luminescence value from each treatment sample was normalized to the average value of the respective DMSO control. The dosage response curve plots were generated using Graphpad Prism 6 and fit using nonlinear regression analysis and the log(inhibitor) versus response—Variable slope (four parameters). For heatmap summarization of IC50 shifts, IC50 value was extracted from dosage response curves and the fold changes of IC50 values in PHF5A variants expressing lines over that of the WT lines were calculated and plotted using TIBCO Spotfire software. For IC50s greater than the top dosage, the values were arbitrarily set at 10 μM. Unsupervised clustering analysis was performed in TIBCO Spotfire using the following default parameters: Clustering method: UPGMA; Distance measure: Euclidean; Ordering weight: Average value; Normalization: (None); Empty value replacement: Constant value: 0.

PANC0504 cells = experiment: Growth inhibition of Panc0504 cells expressing PHF5A WT or Y36C; assay type: cell-based
Procedure: (§2) Parental HCT116 cells were obtained from ATCC and cultured in RPMI 1,640 medium (Thermo Fisher, GIBCO#11875) supplemented with 10% fetal bovine serum (FBS). Parental Panc0504 cells were obtained from ATCC and cultured in GIBCO RPMI 1,640 medium (Thermo Fisher, GIBCO#11875) supplemented with glucose (to 4.5 g l^−1 final), HEPES (10 mM final), sodium pyruvate (1 mM final), human insulin (10 μg ml^−1 final) and 15% FBS. Cell line authentication was achieved by genetic profiling using polymorphic short tandem repeat (STR) loci (ATCC). All cell lines were free of mycoplasma contamination. […]
(§3) For CellTiter-Glo analysis, 500 cells were seeded in each well of a 384-well plate the day before compound addition. […] Seventy-two hours post compound addition, CellTiter-Glo reagent was added to the medium, incubated and assayed on EnVision Multilabel Reader (PerkinElmer). The luminescence value from each treatment sample was normalized to the average value of the respective DMSO control. […] For heatmap summarization of IC50 shifts, IC50 value was extracted from dosage response curves and the fold changes of IC50 values in PHF5A variants expressing lines over that of the WT lines were calculated and plotted using TIBCO Spotfire software. […]

[3] = test system: HCT116 resistant clones (SF3B1-R1074H, SF3B1-V1078A/I, PHF5A-Y36C); experiment: 72 h growth inhibition profiling (CellTiter-Glo) of E7107- and herboxidiene-resistant HCT116 clones; assay type: cell-based; conditions: HCT116 clones with SF3B1-R1074H, SF3B1-V1078 or PHF5A-Y36C; 72 h CellTiter-Glo
Procedure: In total, 2.5 million HCT116 cells were seeded in each 10 cm dish and treated with indicated dosages of splicing modulators for 2 weeks. Compounds were refreshed every 4 days. When needed, confluent dishes were split 1:3 and cells were allowed to recover overnight without splicing modulator treatment after re-seeding. At the end of the compound selection period, surviving individual clones were picked and transferred to 12-well plates. Individual resistant clones were further expanded without splicing modulator treatment and one million cells from each clone were pelleted for genomic DNA extraction using the DNeasy Blood & Tissue Kit from Qiagen. WXS libraries were generated by Novogene Corporation using Agilent SureSelect Human All Exon V6 kit and sequenced on Illumina HiSeq platform. 12G raw data were gathered for each sample. WXS reads were then aligned to hg19 by BWA-MEM[40] and somatic mutations were identified with MuTect2 (ref. [41]) through Sentieon pipeline[42] by pairing resistant clone with parental cell lines. As we selected the resistant clones for WXS, the allele frequencies for the mutations which are responsible for the resistance should be high. We focused on non-silent mutations (among the H3 curated spliceosome genes) with allele frequency higher than 0.2.
as §1

SF3B1 (R1074H) = test system: SF3B1 (R1074H); design: method as in PMID 21981285; conditions: single amino acid substitution R1074H in SF3B1; cited from earlier work
[4] = test system: PHF5A variant expressing HCT116 cells; experiment: 72 h growth inhibition profiling (CellTiter-Glo) of PHF5A WT- or Y36/V37 variant-expressing HCT116 cells; assay type: cell-based; conditions: HCT116, 72 h
Procedure: as §2, §3

Compound | induction of MCL1 ES and IR events [2] | GI50 (HCT116 cells; Homo sapiens, HCT-116) | resistance of resistant clones in growth inhibition profiling [3] | effect of SF3B1 R1074H on splicing-modulating and antiproliferative effects (SF3B1 (R1074H)) | GI50 (HCT116 cells) | further results
CC[C@H](O)[C@@H](C)[C@H]1O[C@@H]1C[C@@](C)(O)/C=C/C=C(\C)[C@H]1OC(=O)C[C@H](O)CC[C@@](C)(O)[C@@H](OC(=O)N2CCN(C3CCCCCC3)CC2)/C=C/[C@@H]1C [E7107] | ‘earlier' induction of MCL1 ES events than IR events at lower doses | 1.5 nM | SF3B1-R1074H mutation conferred the most robust resistance | almost completely abolished | – | dominant MCL1 splicing event (Sashimi plot of RNA-seq) ([1]; PHF5A WT cells): IR was the dominant event; dominant MCL1 splicing event (Sashimi plot of RNA-seq) ([1]; PHF5A Y36C cells): mainly ES events were observed; MCL1-S production (ES events) in PHF5A-Y36C cells compared to WT ([2]; increasing dosage): enhanced to a higher level; resistance phenotype on PHF5A Y36C over-expression (PANC0504 cells): partial resistant phenotype
CC(C)C[C@H](NC(=O)[C@H](Cc1ccccc1)NC(=O)c1cnccn1)B(O)O [bortezomib, Bortezomib] | – | – | did not affect the cell lines' sensitivity | – | – | resistance in PHF5A Y36 variant expressing cells [4]: resistance only occurred to the treatment with splicing modulators but not bortezomib
COC(C(C)O)C(C)C1OC1(C)CC(C)C=CC=C(C)C1OC(CC(=O)O)CCC1C (stereo not drawn) [herboxidiene] | – | 7.6 nM | PHF5A-Y36C mutation rendered more resistance | – | – | –
CO[C@]1(C)C[C@@]2(CO2)[C@H](O)[C@@H](/C=C/C(C)=C/C[C@@H]2O[C@H](C)[C@H](NC(=O)/C=C\[C@H](C)OC(C)=O)C[C@@H]2C)O1 [spliceostatin A] | – | – | SF3B1-R1074H mutation also conferred better resistance | – | 0.76 nM | –
CNC(=O)OC(C)C=CC(=O)NC1CCC(CC=C(C)C=CC2CC3(CO3)CC(C)(C)O2)CC1 (stereo not drawn) [sudemycin D6] | IR events were not observed | – | SF3B1-R1074H mutation also conferred better resistance | – | 149 nM | –
pladienolide B | – | – | – | almost completely abolished | – | –
